This note sets out measurements from patent publication US10144736B2 (Gilead Sciences, Inc., priority 2006, dated 2018).

One data set has as its system Huh-7 HCV replicon cells. In words: CC50 assay (CellTiter-Glo) in Huh-7 HCV replicon cells. It is filed as cell-based, human. The conditions noted are these: 3 days incubation, 50% cytostatic concentration. Here is the method:
(§1) The anti HCV activity of specifically substituted pteridine derivatives was tested in a human hepatoma Huh-7 cell line harbouring a HCV replicon. The assay comprised the following steps:
(§2) Step 1: compound preparation and serial dilution involved the following alternatives, depending upon the water solubility of pteridine derivative being tested:
(§3) • 1. with respect to water soluble pteridine derivatives, 500 μL of solution in cell media (DMEM, 10% FBS, P/S, L-Glutamine) was prepared with a concentration that is twice the concentration of the starting final serial dilution concentration. 150 μL of the solution was added to the pre-specified wells in column 1 of a 96-well cell culture plate (PerkinElmer, white plate, cat. #6005181, for EC50 assay; black plate, cat. #6005182 for CC50 assay). The rest of the plate, i.e. columns 2-12, was filled with 100 μL of cell media. The plate was then placed on a Precision 2000 Workstation in order to start serial dilution. Pteridine compounds were diluted three times each step from column 1 to column 10. Column 11 was used as a blank control (no pteridine compound added). • 2. With respect to poorly water soluble pteridine derivatives, DMSO was used as a solvent, and serial dilution was performed in 50% DMSO in water, in a 384-well plate. A solution containing the relevant compound at 100-fold the concentration of the starting final serial dilution concentration was prepared in 50% DMSO in water and added to the pre-specified wells in column 1 of a polypropylene 384-well plate. This plate was then placed on a Precision 2000 Workstation in order to start serial dilution. After serial dilution, 2 μL of the solution was transferred from the 384-well plate to a 96-well cell culture plate containing 100 μL of cell media on a Biomek FX Workstation. The DMSO concentration in the final assay condition was 0.5% after cells have been added to the plate and the total volume in each well was brought to 200 μL. Step 2: to each well of the serial dilution plate prepared in step 1, 100 μL of cell media containing 6000 suspended Huh-7 HCV replicon cells was added with a Multidrop workstation. Plates were incubated for 3 days at 37° C. with 5% CO2. Step 3: detection: • 1) with respect to the EC50 assay, the media in a 96-well cell culture plate was aspirated with a Biotek EL405 plate-washer. A volume of 200 μL of a solution containing a 1:1 mixture of a cell-lysis buffer (commercially available from Promega, Luciferase Cell Culture Lysis 5X Reagent, cat. #E1531) and a luciferase substrate solution (commercially available from Promega, Luciferase Assay, cat. #E4550) was added to each well of the plate with Multidrop. The plate was incubated for 30 minutes at room temperature before the luminescence signal was measured with a TopCount plate-reader. • 2) with respect to the CC50 assay, 100 μL of a pre-mixed CellTiter-Glo (commercially available from Promega, cat. #G7572) solution was added directly to the cell culture in each well of the plate and the luminescence signal was measured with a TopCount plate-reader after 10 minutes of incubation at room temperature.
(§4) Results are expressed by the following data: • the 50% effective concentration (EC50), i.e. the concentration that protects 50% of the cell monolayer from virus-induced cythopathic effect. • the 50% cytostatic concentration (CC50), i.e. the concentration that results in 50% inhibition of cell growth.
On the technique in general: In ATP-based viability assays light output follows the ATP content of the culture.

Another data set addresses HCV replicon. The experiment in a line: Anti-HCV replicon assay (EC50, luciferase readout). The class given is cell-based, hepatitis C virus. The following applies: human hepatoma Huh-7 cell line harbouring a HCV replicon, 3 days incubation, luciferase signal. On the procedure:
as §1, §2, §3, §4

The nature of data set [1]: CC50 assay (CellTiter-Glo) in Huh-7 HCV replicon cells. It is filed as cell-based, human. The following applies: human, 3 days incubation, 50% cytostatic concentration. Here is the method:
as §1, §2, §3, §4

The mark [2] stands for this setting: Hepatitis C virus, 72 h, read-out: EC50.

SMILES strings stand for the structures. Read-outs that look alike come from different tables or passages of the source. A value given as a limit tells only on which side of the number the result lay.

What is called CC50 is the concentration at which the toxic effect on the cells reaches its halfway point. Read a low CC50 as harm at low concentration. For orientation: EC50 means the concentration needed to bring the measured effect to its halfway point. In the data set with Huh-7 HCV replicon cells, `Nc1nc(N2CCOCC2)c2nc(-c3ccc(NC(=O)C4CC4)cc3)cnc2n1` [Example 142, Cyclopropane carboxylic acid[4-(2-amino-4-morpholin-4-yl-pteridin-6-yl)-phenyl]-amide] showed a CC50 of less than 10 µM. Further, the EC50 on HCV replicon (read-out: EC50) is 0.3 to 1 µM.
For `Nc1nc(N2CCOCC2)c2nc(-c3ccc(OC(F)(F)F)cc3)cnc2n1` [Example 86], in that order: 10 to 20 µM and 0.3 to 1 µM.
`Nc1nc(N2CCOCC2)c2nc(-c3ccc(C(F)(F)F)cc3C(F)(F)F)cnc2n1` [Example 93, 6-(2,4-bis(trifluoromethyl)phenyl)-4-morpholinopteridin-2-ylamine]: the CC50 at 3 days in data set [1] fell in the range of 10 to 20 µM. Also, the EC50 with HCV replicon (setting [2]) was 1 to 10 µM.
Turning to `Nc1nc(N2CCOCC2)c2nc(-c3ccc4c(c3)CC(=O)N4)cnc2n1` [Example 136, 5-(2-amino-4-morpholinopteridin-6-yl)indolin-2-one], the CC50 at 3 days in data set [1] fell in the range of 10 to 20 µM. Moreover, the EC50 in the data set with HCV replicon (setting [2]) was in the range of 1 to 10 µM.
For `CCOc1nc(N)nc2ncc(-c3ccc(S(C)(=O)=O)cc3)nc12` [Example 30, 4-ethoxy-6-(4-(methylsulfonyl)phenyl)pteridin-2-ylamine], in that order: greater than 20 µM and 1 to 10 µM.
Consider `CCOc1nc(N)nc2ncc(-c3ccc(OC)c(F)c3)nc12` [Example 3, 4-ethoxy-6-(3-fluoro-4-methoxyphenyl)pteridin-2-ylamine], for which, in data set [1], the CC50 at 3 days is greater than 20 µM. Moreover, the half-maximal effective concentration (EC50) in the data set on HCV replicon (setting [2]) lay within 1 to 10 µM.
As for `CCOc1cccc(-c2cnc3nc(N)nc(N4CCOCC4)c3n2)c1` [Example 126, 6-(3-ethoxyphenyl)-4-morpholinopteridin-2-ylamine], the CC50 at 3 days in data set [1] was in the range of 10 to 20 µM. In addition, the concentration giving a half-maximal response (EC50) with HCV replicon (setting [2]) was in the range of 1 to 10 µM.
For `CCOc1nc(N)nc2ncc(-c3ccncc3)nc12` [Example 31, 4-ethoxy-6-(pyridin-4-yl)pteridin-2-ylamine], in that order: less than 10 µM and 0.3 to 1 µM.
For `CCCOc1nc(N)nc2ncc(-c3ccc(F)cc3)nc12` [Example 159, 6-(4-Fluorophenyl)-4-propoxy-pteridin-2-ylamine], in that order: greater than 20 µM and 1 to 10 µM.
With `Nc1nc(N2CCOCC2)c2nc(-c3ccc(CN4CCOCC4)cc3)cnc2n1` [Example 89, 4-morpholino-6-(4-(morpholino-methyl)phenyl)pteridin-2-ylamine], the CC50 at 3 days in data set [1] was greater than 20 µM. Also, the EC50 in the data set on HCV replicon (setting [2]) was in the range of 1 to 10 µM.
For `CC(C)C(=O)Nc1ccc(-c2cnc3nc(N)nc(N4CCOCC4)c3n2)cc1` [Example 137, N-(4-(2-amino-4-morpholinopteridin-6-yl)phenyl)isobutyramide], in that order: 10 to 20 µM and less than 0.3 µM.
Take `COc1ccccc1-c1cnc2nc(N)nc(N3CCOCC3)c2n1` [Example 80, 6-(2-methoxyphenyl)-4-morpholinopteridin-2-ylamine]: the CC50 at 3 days in data set [1] was greater than 20 µM. In addition, the concentration for a half-maximal effect (EC50) with HCV replicon (setting [2]) is 0.3 to 1 µM.
Turning to `Nc1nc(N2CCOCC2)c2nc(-c3cccc(F)c3F)cnc2n1` [Example 113, 6-(2,3-difluorophenyl)-4-morpholino-pteridin-2-ylamine], in the data set with Huh-7 HCV replicon cells, the CC50 was greater than 20 µM. Moreover, the half-maximal effective concentration (EC50) in the data set on HCV replicon fell in the range of 1 to 10 µM.
With `Nc1nc(N2CCOCC2)c2nc(-c3ccc(C(F)(F)F)cc3Cl)cnc2n1` [Example 121, 6-(2-chloro-4-(trifluoromethyl)phenyl)-4-morpholinopteridin-2-ylamine], in data set [1], the CC50 at 3 days lay within 10 to 20 µM. Also, in the data set with HCV replicon (setting [2]), the EC50 lay within 1 to 10 µM.
On to `COc1ccc(-c2cnc3nc(N)nc(N4CCOCC4)c3n2)cn1` [Example 130, 6-(6-methoxypyridin-3-yl)-4-morpholinopteridin-2-ylamine], for which the CC50 at 3 days in data set [1] is greater than 20 µM. In addition, in the data set on HCV replicon (setting [2]), the EC50 fell in the range of 1 to 10 µM.
Consider `Cc1cc(F)ccc1-c1cnc2nc(N)nc(N3CCOCC3)c2n1` [Example 120, 6-(4-fluoro-2-methylphenyl)-4-morpholinopteridin-2-ylamine], for which the CC50 at 3 days in data set [1] is 10 to 20 µM. For the same compound, the EC50 with HCV replicon (setting [2]) fell in the range of 1 to 10 µM.
Turning to `CC(C)Oc1nc(N)nc2ncc(-c3ccc(F)cc3)nc12` [Example 150, 6-(4-Fluorophenyl)-4-isopropoxy-pteridin-2-ylamine], the CC50 at 3 days in data set [1] is greater than 20 µM. Further, in the data set with HCV replicon (setting [2]), the EC50 was less than 0.3 µM.
Compound `Nc1nc(N)c2nc(-c3cccc(F)c3F)cnc2n1` [Example 143, 6-(2,3-difluoro-phenyl)-pteridine-2,4-diamine] had a CC50 at 3 days in data set [1] of 10 to 20 µM. In the data set on HCV replicon (setting [2]), the EC50 is 1 to 10 µM.
For `CC(C)(C)C(=O)Nc1ccc(-c2cnc3nc(N)nc(N4CCOCC4)c3n2)cc1` [Example 138, N-(4-(2-amino-4-morpholinopteridin-6-yl)phenyl)pivalamide], in that order: 10 to 20 µM and 1 to 10 µM.
